Experimental findings from US11851459B2, “Methods and uses of modulators of anaphase promoting complex (APC) activity for treating cancer” (University of Saskatchewan, priority 2018, dated 2023) are described below.

One test has as its target T1, Apc10 (Saccharomyces cerevisiae, UniProt P53068).
T1 construct: expressed in transfected cells; host or cells: yeast Y2H cells
T1 sequence (P53068 1-250): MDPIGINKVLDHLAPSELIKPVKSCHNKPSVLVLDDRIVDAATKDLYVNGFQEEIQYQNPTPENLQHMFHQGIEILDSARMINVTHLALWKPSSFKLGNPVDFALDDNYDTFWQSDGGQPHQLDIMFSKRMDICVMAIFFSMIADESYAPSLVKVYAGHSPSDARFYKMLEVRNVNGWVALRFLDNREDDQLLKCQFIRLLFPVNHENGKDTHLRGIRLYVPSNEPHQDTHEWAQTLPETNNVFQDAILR
Nature of the test: Yeast 2-hybrid (Y2H) assay, Apc10 bait. It is filed as binding. As to the method: (§1) The reverse genetic screen utilized a yeast 2-hybrid (Y2H) protocol that selected for peptides that bound to the APC subunits Apc5 or Apc10 (see FIG. 8 for APC structure), to assess whether peptide-binding might modify APC function. Peptides that bound APC subunits were then assayed for those that suppressed APC mutant defects.
A library of random small peptides were cloned into a Thioredoxin (Trx) scaffold (see FIG. 9 for Trx-peptide structure) and expressed from a galactose-inducible Y2H prey vector in cells expressing the Apc10 bait vector (the modified Apc10 is still part of the complete APC complex). Six peptides that reproducibly interacted with the Apc10 bait construct in Y2H assays were identified (FIG. 1A) and were examined further. Cells will only grow in this assay if the peptide interacts with Apc5 or Apc10.
(§2) To identify peptides that bound to either Apc5 or Apc10 proteins using a yeast 2-hybrid (Y2H) screen, random small peptides were cloned into the TrxA scaffold (library provided by R. Geyer; FIG. 9) and expressed from a galactose-inducible Y2H prey vector in cells harboring either the APC5 or APC10 genes cloned into the Y2H bait vectors (APC5/APC10 bait constructs complement APC mutant defects).
(§3) Over 100 peptides that bound either Apc5 or Apc10 were recovered from millions screened. Six peptides that reproducibly interacted with the Apc5 or Apc10 bait construct in Y2H assays were examined further. Vectors expressing these 6 peptides were transformed into WT or APC mutant cells and assessed for ts growth.

Test [1] concerns apc5 temperature sensitive mutant and/or apc10Δ mutant. Nature of the test: Viability of APC mutant yeast (spot dilution). In kind it is cell-based.
From the text: Suitable APC activators also include APC activators that increase the cell viability of an wild-type and/or an APC mutant cell by at least 10%, at least 20%, at least 30%, at least 40%, at least 50%, at least 60%, at least 70% or at least 80% compared to a cell with wild-type APC function. […] Examples of yeast cells with defective APC function include apc5 and apc10 mutants. An example of an apc5 mutant is the apc5 temperature sensitive mutant described herein. An example of an apc10 mutant is the apc10 deletion mutant described herein. Viability of a yeast mutant can be measured for example, by the spot dilution assays described herein or any other method known in the art.
as §1, §3

The subject of test [2] is APC (substrates Cyclin B, Securin, Cdc20, HURP). Nature of the test: APC substrate westerns in MDA-MB-231 cells expressing peptides. It is filed as cell-based, human. To be noted: for levels of the APC substrate CDC20: MDA-MB-231 stably expressing peptides; for levels of the APC substrate HURP: MDA-MB-231 stably transfected, normalized to tubulin. The protocol:
(§4) A. Transient transfection of the C43-4 peptide plasmid into human triple negative MDA-MB-231 breast cancer cells followed by Western blot analysis of lysates against Cyclin B, Securin and Cdc20 showing enhanced protein loss. B. Cells in A were treated with DOX (1 uM) for 48 hrs with cell viability measured using an MTT assay kit. The experiment was done in triplicate with standard error of the means shown.
(§5) A. Stable integration of C43-4 in MDA-MB-231 cells was established by selection of transfected cells on Geneticin for 7 days. Westerns against APC substrates show APC activation. B. Cells in A were treated with DOX (1 uM) for 48 hrs with cell viability measured using an MTT assay kit. Mean and SEM of 3 biological repeats.
(§6) A. TNBC MDA-MB-231 cells stably expressing APC binding peptides activate the APC. Cells were grown to confluence and then used to prepare protein lysates. The lysates were used to measure levels of the APC substrate CDC20, which will be reduced if the APC is activated. Cells stably expressing the pcDNA empty vector were used as a control. B. In a similar experiment, MDA-MB-231 cells stably expressing the APC binding peptides shown, or the empty vector control, were used to measure protein levels of the APC substrate HURP using Westerns. C. Triplicate blots as in B were scanned, normalized to tubulin and plotted. Error of the mean is shown. Significant changes are indicated. D. MDA-MB-231 cells stably expressing the empty pcDNA vector, or the C43-4 and C13-3 APC binding peptides, were treated with 1 μM Doxorubicin for 24 hrs. Cell viability was measured using an MTT viability assay.
The C43-4 peptide sequence was cloned into the human expression vector pcDNA. This construct was transiently, and stably, expressed in human breast cancer cell line MDA-MB-231. […] In 231 cells, which are triple negative, aggressive and somewhat resistant to Doxorubicin, the transiently and stably transfected C43-4 peptide resensitized them to DOX treatment (FIGS. 22B and 23B).
(§7) In FIG. 26B, MDA-MB-231 cells were also stably transfected with the peptides C1-8, C2-4B, C3-1B, and C9-5. Levels of the APC substrate HURP were measured in lysates prepared from these cells. […] The empty vector pcDNA was also stably expressed in 231 cells and used as a control.

The next test has as its target T2, Apc5 (Saccharomyces cerevisiae, UniProt Q08683).
T2 construct: expressed in transfected cells; host or cells: yeast Y2H cells
T2 sequence (Q08683 1-685): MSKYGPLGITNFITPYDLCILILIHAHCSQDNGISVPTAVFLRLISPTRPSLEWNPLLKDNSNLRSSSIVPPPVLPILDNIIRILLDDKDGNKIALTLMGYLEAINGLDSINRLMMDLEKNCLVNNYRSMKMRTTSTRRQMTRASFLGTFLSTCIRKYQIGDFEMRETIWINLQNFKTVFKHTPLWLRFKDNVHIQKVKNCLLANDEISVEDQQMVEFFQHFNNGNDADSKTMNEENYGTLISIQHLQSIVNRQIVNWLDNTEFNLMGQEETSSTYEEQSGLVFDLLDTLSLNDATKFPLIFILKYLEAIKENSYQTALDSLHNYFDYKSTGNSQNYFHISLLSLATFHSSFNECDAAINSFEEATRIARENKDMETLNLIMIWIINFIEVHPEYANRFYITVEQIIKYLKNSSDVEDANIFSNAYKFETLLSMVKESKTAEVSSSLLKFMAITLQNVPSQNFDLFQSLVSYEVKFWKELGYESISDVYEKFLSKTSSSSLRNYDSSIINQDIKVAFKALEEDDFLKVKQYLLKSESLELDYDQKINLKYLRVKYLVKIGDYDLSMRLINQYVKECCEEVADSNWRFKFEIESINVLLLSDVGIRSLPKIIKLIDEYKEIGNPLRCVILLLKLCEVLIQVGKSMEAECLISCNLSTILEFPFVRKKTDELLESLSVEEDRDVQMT
Nature of the test: Yeast 2-hybrid (Y2H) assay, Apc5 bait. In kind it is binding. As to the method: as §1, §2, §3

Test [3] deals with MDA-MB-231 cells. Nature of the test: DOX sensitivity, MTT viability assay, MDA-MB-231 cells expressing peptides. It is filed as cell-based, human. Conditions: stably transfected, 1 uM Doxorubicin 24 hours. As to the method:
as §4, §5, §6, §7
For orientation: Tetrazolium assays rely on reduction of a dye to a coloured formazan, in cell work by metabolically active cells.

Test [4] concerns MDA-MB-231 cells. Nature of the test: Scratch assay, migration of MDA-MB-231 cells. In kind it is cell-based, human. As to the method:
A. An equal number of MDA-MB-231 TNBC cells were grown to confluence in 6 well plates. The cells were then treated with increasing doses of metformin (0, 1, 5 and 10 mM) and a scratch was made in the cell lawn creating a void. At the times shown the number of cell that migrated into the void were counted. The experiment was repeated twice. B. WT MDA-MB-231 cells and cells stably expressing the C43-4 plasmid were grown as in A. Control cells were left untreated, with other cells treated with the DMSO control, 1 uM DOX or 2.5 uM M2I-1. A void was created in the cell lawn and the number of cells that entered the void were scored as above. This experiment was repeated 4 times. This experiment was also repeated 4 times in an independently generated stable C43-4 cell line with similar results. The error of the mean is shown. C. WT and MDA-MB-231 cells stably expressing the C2-4B peptide plasmid were used for the scratch assay as described above. D. WT and MDA-MB-231 cells stably expressing the C13-3 peptide plasmid were used for the scratch assay as described above. The experiments in C and D were only performed once.
Assays using WT and C43-4 expressing cells have been done 4 times. Assays using C13-3 and C2-4B cells have only been conducted once. Metformin treated cells have been used twice. For scratch assays, a scratch is made down a confluent plate of cells, leaving a void. The number of cells that migrate back into the void over time is determined.

Another test deals with APC. Nature of the test: Yeast 2-hybrid assay for binding the APC. The protocol: as §1, §2
The target in another test is T3, Cin5 (Saccharomyces cerevisiae, UniProt P40917).
T3 construct: expressed in transfected cells; host or cells: yeast Y2H cells
T3 sequence (P40917 1-295): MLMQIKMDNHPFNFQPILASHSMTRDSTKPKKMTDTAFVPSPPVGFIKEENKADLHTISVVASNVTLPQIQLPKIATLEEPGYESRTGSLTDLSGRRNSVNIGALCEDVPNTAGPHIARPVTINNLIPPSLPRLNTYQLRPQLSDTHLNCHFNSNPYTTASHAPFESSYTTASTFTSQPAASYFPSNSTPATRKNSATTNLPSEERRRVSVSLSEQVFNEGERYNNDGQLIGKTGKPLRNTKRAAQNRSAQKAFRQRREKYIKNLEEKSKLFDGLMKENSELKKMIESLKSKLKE
Nature of the test: Yeast 2-hybrid with Y65 as bait to identify binding partners. The text has this:
One peptide in particular, Y65, was of interest because it had homology to Elongin C (Elc1; Y65 is 20 amino acids in length, with a 7 residue stretch sharing 86% identity and 100% similarity with Elc1). Elc1 is a ubiquitin-protein ligase (E3) conserved among eukaryotes that is involved in DNA repair (Harreman et al, 2009; Ribar et al, 2007). To identify what the peptides bound in order to modify APC activity, Y65 was cloned into the Y2H bait vector and used to identify binding partners.

For test [5], the system named is apc5^CA temperature sensitive mutant. Nature of the test: Forward genetic screen, rescue of apc5^CA ts growth. It is filed as cell-based, yeast. To be noted: restrictive temperature. The source says: Using a forward genetic screen to test whether temperature sensitive (ts) APC mutants expressing random small peptides could grow at restrictive temperatures, millions of small peptides were rapidly screened for those that could restore mutant APC phenotypes. Peptides that rescued the apc5^CA ts (temperature sensitive) defect were recovered including peptides Y65 and Y36.
In the forward screens, with galactose-inducible TrxA-based peptide libraries, in cells harboring the apc5^CA ts allele, over 200 peptides (from millions screened) suppressed the ts phenotype. Several recovered plasmids were sequenced.

Entries after “also recorded” stand apart in the source; their conditions may differ.

Turning to PSYNTIKYHETHGGRHPRRQRKRPI [C3-1], the “binds Apc10 in a yeast 2 hybrid assay” value with Apc10 was “Binds Apc10”. The “viability of an APC mutant” value in [1] was “increases the viability of an APC mutant”. The “levels of the APC substrate CDC20” value in test [2] was “reduce levels”.
For the compound FCL (FLC) [C1-8], the “levels of the APC substrate HURP” value in test [2] was “did not reduce”.
Regarding GALKEVCICIVESVGGEVFS [C13-3], the “binds Apc5 in a yeast 2 hybrid assay” value in the test with Apc5 is listed as “Binds Apc5”. In addition, the “viability of an APC mutant” value in test [1] was “increases the viability of an APC mutant”. The “levels of the APC substrate CDC20” value in test [2] is recorded as “reduce levels”. Besides, the “synergy with Doxorubicin (killing effect)” value with MDA-MB-231 cells [3] was “synergize”. For the same compound, the “metastatic potential / in vitro migration” value in the test on MDA-MB-231 cells [4] was “inhibit the in vitro migration”.
On to VRQKSDKEYERVLGLGLRRL [Y65], for which the “bind the APC in a yeast 2HY assay” value in the test with APC is given as “not bind the APC in a yeast”. Besides, in the test with Cin5, the “Interacts with Cin5 in a yeast 2 hybrid assay” value was “One peptide binding partner was isolated, Cin5”. For the same compound, in test [5], the “apc5^CA temperature sensitive (ts) growth / viability” value was “increases the viability; also recorded: rescued; also recorded: Rescues apc5^CA temperature”.
SWLNGSGGVVLWLFSNFCCG [Y36]: in the test on APC, the “bind the APC in a yeast 2HY assay” value is listed as “not bind the APC in a yeast”. The “apc5^CA temperature sensitive (ts) growth / viability” value in [5] is “increases the viability; also recorded: rescued; also recorded: Rescues apc5^CA temperature”.
For the compound RRCLSIRTENLAWEGKFLRV [C50-1], the “binds Apc10 in a yeast 2 hybrid assay” value in the test with Apc10 is on record as “Binds Apc10”. Further, in [1], the “viability of an APC mutant” value is listed as “increases the viability of an APC mutant”.
CECLETETFHPITRHLIVPV [C9-5]: the “binds Apc5 in a yeast 2 hybrid assay” value in the test with Apc5 is given as “Binds Apc5”. Moreover, the “viability of an APC mutant” value in [1] is “increases the viability of an APC mutant”. Moreover, the “levels of the APC substrate HURP” value in test [2] is recorded as “Only C1-8 did not reduce HURP levels”.
As for PVNGERWAP [C3-1B], the “binds Apc10 in a yeast 2 hybrid assay” value with Apc10 was “Binds Apc10”. In addition, in test [2], the “levels of the APC substrate HURP” value is “Only C1-8 did not reduce HURP levels”.
Take `COc1cccc2c1C(=O)c1c(O)c3c(c(O)c1C2=O)C[C@@](O)(C(=O)CO)C[C@@H]3O[C@H]1C[C@H](N)[C@H](O)[C@H](C)O1` [Doxorubicin, reference compound]: the “metastatic potential / in vitro migration” value with MDA-MB-231 cells [4] is recorded as “blocked”.
Consider SKWTWRMCMSWTVDRFAPVPWP [C24-1], for which the “binds Apc5 in a yeast 2 hybrid assay” value in the test with Apc5 was “Binds Apc5”. The “viability of an APC mutant” value in test [1] is on record as “increases the viability of an APC mutant”.
